US7601685B2, “Growth factor modified protein matrices for tissue engineering” (Eidgenossische Technische Hochschule Zurich, priority 1998, dated 2009)

Assays:
[1] = test system: sheep drill defect; assay: Sheep bone drill defect healing; type: in vivo; details: healing time 8 weeks
Experimental: To form the fibrin gel, the dilute precursors were mixed together by injecting the fibrinogen into the tube containing the thrombin. In case of the sheep drill defect (as described below) this mixture was then injected immediately into a drill defect created in sheep cancellous bone, where a fibrin gel formed within 1-5 minutes. In the first series of animal experiments, the efficacy of a fusion protein containing PTH1-34 as the bioactive factor ([…], SEQ ID NO:38) in healing cortical bone was tested in a small animal model. The sequence, YKNR, makes the linkage plasmin degradable (“TG-pl-PTH1-34). The TG-pl-PTH1-34 was made by chemical synthesis. […] The purity of the TG-pl-PTH1-34 was determined to be 95%.
TG-pl-PTH1-34 was tested as well in a long bone defect model to test the effect of this hormone on healing bone. In the sheep drill defect model, 8 mm cylindrically drill defects that were approximately 15 mm deep were placed in both the proximal and distal region of the femur and humerus bones. Since the defect was placed in the epiphysis of the long bones, the defect was surrounded by trabecular bone with a thin layer of cortical bone at the rim of the defect. These defects were then filled with an in situ polymerizing fibrin (about 750 μL) that contained various doses of TG-pl-PTH1-34. or TGPTH1-34. Animals were allowed to heal for eight weeks and then were sacrificed. The defect was analyzed with μCT and histology.
For this series of experiments, three types of compositions were tested. First, TG-pl-PTH1-34 was tested over a large concentration range. […] Thus, TGPTH1-34 could only be liberated by degradation of the fibrin matrix itself. TGPTH1-34 was produced and purified similar to TG-pl-PTH1-34. Purity was determined to be 95%. TGPTH1-34 was tested at several concentrations that were similar to the concentrations of TG-pl-PTH1-34 to compare efficacy. Finally, matrices were made in the presence of granular material, with either TGPTH1-34 or TG-pl-PTH1-34. The granular material was a standard tricalcium phosphate/hydroxyapatite mixture which was embedded in the matrix during gelation. The effect of adding these granules on the efficacy of PTH1-34 was explored. As a control, unmodified fibrin was tested.
The fibrin gel for all experiments was made as described in Example 7. The sheep bone defects were prepared as described in Example 7. The defects were filled with 750 μL of fibrin matrix alone (control) or with TG-pl-PDGFAB, TG-pl-IGF1 or TG-pl-BMP2. The sheep were allowed to heal for eight weeks and were then sacrificed. The explanted defect area was examined with μCT to evaluate the degree of new bone formation.

[2] = test system: critical size rat cranial defect; assay: Rat critical size cranial defect healing; type: in vivo; details: for Healing (% defect filled with bone): Time 63 Days
[3] = test system: chick DRGs; assay: Neurite extension of DRGs in fibrin matrices with immobilized β-NGF fusion proteins; type: cell-based
Source text: FIG. 3 is a graph of the effect of immobilized β-NGF fusion proteins on DRG neurite extension within fibrin matrices. Mean values and standard error of the mean are shown. ▪ denotes native NGF. ♦ denotes TG-P-NGF. ● denotes TG-Pi-NGF. * denotes p<0.0001 versus unmodified fibrin with NGF in the culture medium.
To determine the ability of covalently immobilized β-NGF fusion protein to be delivered in a controlled manner, β-NGF fusion proteins were incorporated into fibrin matrices during polymerization, and the ability of these matrices to enhance neurite extension in vitro was assayed using chick DRGs. […] A dose response effect for TG-P-NGF fusion protein was observed, with an optimal dose attained when 1-5 μg/mL of β-NGF fusion protein was present in the polymerization mixture. […] Despite the lower activity of the β-NGF fusion proteins in the PC12 cell activity assay, when the plasmin degradable β-NGF fusion protein was covalently coupled to fibrin, it promoted greater levels of neurite extension than the same dose of native NGF in the culture medium.

[4] = test system: chronic leg ulcers of the venous stasis origins; assay: Chronic wound healing on skin in human patients; type: in vivo
Experimental: TG-pl-PDGF AB as described in Example 7 was incorporated into fibrin gels at 33 μg/mL gel and applied topically to patients with chronic leg ulcers of the venous stasis origins (at the Dermatology Klinik of the University Hospital Zürich.)
The fibrin gels were made from Baxter TISSUCOL® kits (Baxter AG, CH 8604 Volketswil) by diluting the fibrinogen component with Citrate-Glycine buffer (pH 7.3) and diluting the thrombin component with 40 mM Calcium chloride-glycine buffer (pH 7.0). The final concentration of fibrinogen in the applied fibrin gel was about 12.5 mg fibrinogen/mL gel. The thrombin concentration was varied to improve handling of the gels. The final concentration of thrombin in the applied fibrin gel was about 4 to 50 U/mL. TG-pl-PDGF AB was added to the diluted fibrinogen component at 66 μg/mL for a total of 33 μg/mL gel concentration. The diluted fibrinogen and thrombin components were packed in separate sterile syringes at the same volume and deep frozen at −20° C. until use.
The gels were applied via a dual syringe system as provided in the TISSUCOL® kit from Baxter. Briefly, each syringe contained either diluted fibrinogen or diluted thrombin. The two syringes were connected to an applicator set and joined by a tip with a blunt cannula. To form a gel, both components were pushed out of the syringes simultaneously, making a 1:1 mixture fibrin gel directly on the ulcer area. Ulcers were covered with a thin sheath of gel, which was allowed to dry for 2 minutes before standard dressing and compression bandaging was applied.

[5] = test system: day 8 chick embryonic dorsal root ganglia; assay: Dorsal root ganglia neurite extension in fibrin gels with peptide/heparin-bound growth factor; type: cell-based; details: DRG
Source text: FIG. 2 is a graph of the effect of matrix bound bFGF on DRG neurite extension at 48 hr. Mean values and standard deviation of the mean are shown. (* denotes p<0.05 compared with unmodified fibrin.)
In order to evaluate this approach to release of heparin-binding growth factors from fibrin cell in-growth matrices that also comprise a covalently linked bi-domain peptide, one domain of which is a factor XIIIa substrate and one domain of which is a heparin-binding domain based on antithrombin III, dorsal root ganglia were cultured three-dimensionally within fibrin gels under a variety of conditions, as shown in the below.
Cross-linking Protocol for Use of Heparin-Binding Peptides: • 1) Dialyze fibrinogen (8 mg/ml) versus 4 L of Tris buffered saline (33 mM Tris), pH 7.4 for 24 hours. • 2) Sterile filter fibrinogen using a 0.2 μm syringe filter. • 3) Make the following peptide solutions:
• 4) Make thrombin solution: 100 units in 5 ml TBS. • 5) Add 1.4 ml of fibrinogen to each peptide solution. • 6) Make gels: Add 20 μl of TBS+50 mM CaCl2, 40 μl of thrombin solution (20 units/ml), and 340 μl of peptide solution+fibrinogen. (above solutions make 6 gels). • 7) Incubate at 37° C. for 1 hr. • 8) Wash 5 times in 24 hours. Use 1 ml of TBS the first 4 times and neuronal media the last time. • 9) Dissect day 8 chick embryonic dorsal root ganglia. • 10) Place one ganglia in each gel and place at 37° C. for 1 hr. • 11) Add 1 ml of neuronal media to each gel. • 12) Change media after 24 hours.

[6] = biological target: fibrin gels (Homo sapiens, UniProt P02671+P02675+P02679); details: cross-linked during polymerization; gels degraded with plasmin; n=10
Chain of fibrin gels (P02671 20-644 isoform P02671-2 limits assumed): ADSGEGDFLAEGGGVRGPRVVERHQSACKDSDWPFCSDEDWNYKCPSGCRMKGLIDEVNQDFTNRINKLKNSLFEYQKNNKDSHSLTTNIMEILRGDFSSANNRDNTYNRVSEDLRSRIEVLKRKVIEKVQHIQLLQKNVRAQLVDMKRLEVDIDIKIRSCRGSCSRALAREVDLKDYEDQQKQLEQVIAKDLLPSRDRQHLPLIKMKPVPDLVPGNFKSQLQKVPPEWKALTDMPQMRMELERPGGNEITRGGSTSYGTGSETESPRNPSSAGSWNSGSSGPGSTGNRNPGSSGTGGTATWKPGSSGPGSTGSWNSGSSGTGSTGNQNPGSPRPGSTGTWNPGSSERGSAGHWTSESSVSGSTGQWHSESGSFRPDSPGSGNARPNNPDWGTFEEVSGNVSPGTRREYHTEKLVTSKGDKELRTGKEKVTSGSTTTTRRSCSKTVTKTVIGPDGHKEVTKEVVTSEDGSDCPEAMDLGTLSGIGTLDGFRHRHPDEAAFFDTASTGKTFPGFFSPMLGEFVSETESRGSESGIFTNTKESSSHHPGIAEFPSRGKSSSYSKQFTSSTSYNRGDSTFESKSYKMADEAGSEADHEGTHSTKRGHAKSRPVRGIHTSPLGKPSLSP
Chain of fibrin gels (P02675 45-491 limits assumed): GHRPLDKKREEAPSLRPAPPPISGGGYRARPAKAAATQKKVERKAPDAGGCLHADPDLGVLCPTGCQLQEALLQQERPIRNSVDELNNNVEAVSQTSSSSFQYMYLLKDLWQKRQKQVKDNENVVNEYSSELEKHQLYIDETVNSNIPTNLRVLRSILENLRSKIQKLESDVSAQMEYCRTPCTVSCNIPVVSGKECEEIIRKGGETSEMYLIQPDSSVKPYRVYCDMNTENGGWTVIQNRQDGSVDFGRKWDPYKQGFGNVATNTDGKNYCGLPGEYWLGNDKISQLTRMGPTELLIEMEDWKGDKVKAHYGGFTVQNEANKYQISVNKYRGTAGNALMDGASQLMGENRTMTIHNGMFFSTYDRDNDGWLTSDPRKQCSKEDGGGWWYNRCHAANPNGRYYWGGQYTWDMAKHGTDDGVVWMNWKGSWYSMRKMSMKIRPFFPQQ
Chain of fibrin gels (P02679 27-437 isoform P02679-2 limits assumed): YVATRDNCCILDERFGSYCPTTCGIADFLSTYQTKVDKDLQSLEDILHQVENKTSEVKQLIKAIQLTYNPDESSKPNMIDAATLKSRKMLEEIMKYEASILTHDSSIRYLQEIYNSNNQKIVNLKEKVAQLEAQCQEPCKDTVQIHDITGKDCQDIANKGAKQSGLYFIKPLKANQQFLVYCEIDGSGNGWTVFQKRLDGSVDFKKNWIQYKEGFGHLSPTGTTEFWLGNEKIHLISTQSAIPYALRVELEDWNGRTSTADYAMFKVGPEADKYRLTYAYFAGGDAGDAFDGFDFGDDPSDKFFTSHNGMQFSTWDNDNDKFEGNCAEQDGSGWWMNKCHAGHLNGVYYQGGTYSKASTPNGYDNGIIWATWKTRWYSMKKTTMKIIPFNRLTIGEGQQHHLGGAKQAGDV
Experimental: Size exclusion chromatography was used to determine the amount of peptide cross-linked to fibrin gels using the previously developed incorporation method. A bi-domain peptide containing the heparin-binding domain from antithrombin III and a fluorescent label was incorporated into fibrin gels during polymerization. The free peptide was washed from the gels, and the fibrin network was degraded with plasmin. The degradation products were analyzed by high performance liquid chromatography (size exclusion chromatography) to determine the amount of peptide (by fluorescence) present per mole of fibrinogen (by UV absorbance).

[7] = Dose 400 μg/mL in fibrin matrix
[8] = Dose 1000 μg/mL in fibrin matrix
[9] = fusion protein covalently immobilized in fibrin matrix

Substance: NQEQVSPLSVSEIQLMHNLGKHLN SMERVEWLRKKLQDVHNF (NQEQVSPLSVSEIQLMHNLGKHLNSMERVEWLRKKLQDVHNF; Modified parathyroid hormone from Homo sapiens) [TGPTH1-34]
- Healing (% defect filled with bone) [1, 7]: 40%
- Healing (% defect filled with bone) [1, 8]: 65%

Substance: NQEQVSPLYKNRSVSEIQLMHNLGKHLNSMERVEWLRKKLQDVHNF (Modified parathyroid hormone from Homo sapiens) [TG-pl-PTH1-34]
- level of healing ([2]; 3 week timepoint): very similar to that observed with a fibrin matrix alone
- Healing (% defect filled with bone) ([2]; Dose 10 μg/ml in fibrin matrix): 43%
- Healing (% defect filled with bone) ([2]; Dose 200 μg/ml in fibrin matrix): 50%
- Healing (% defect filled with bone) ([2]; Dose 500 μg/ml in fibrin matrix): 62%
- increase of healing response ([2]; high dose, 7 weeks, versus fibrin alone): 65%
- Healing (% defect filled with bone) ([1]; Dose 50 μg/mL in fibrin matrix): 31.3%
- Healing (% defect filled with bone) ([1]; Dose 100 μg/mL in fibrin matrix): 59.7%
- Healing (% defect filled with bone) [1, 7]: 73%
- Healing (% defect filled with bone) [1, 8]: 77%

Substance: TG-P-NGF: β-NGF fusion protein with factor XIIIa substrate NQEQVSPL and functional plasmin substrate LIK/MKP (SEQ ID NO:24)
- optimal dose of β-NGF fusion protein in the polymerization mixture for neurite extension ([3]; dose response in fibrin matrices): 1 to 5 µg/mL
- enhancement of neurite extension over unmodified fibrin with 10 ng/mL of native NGF in medium [3, 9]: up to 50%
- enhancement of neurite extension versus unmodified fibrin with no NGF present in the culture medium [3, 9]: over 350%

Substance: TG-pl-IGF1: IGF1 fusion protein with TG-pl-hook (SEQ ID NO:42)
- Healing (% defect filled with bone) ([1]; Dose 67 μg/mL in fibrin matrix): 41.5%

Substance: TG-pl-PDGFAB: PDGF AB heterodimer with 21 amino acid TG-pl-hook on both N termini (SEQ ID NO:40 and 41)
- Healing (% defect filled with bone) ([1]; Dose 60 μg/mL in fibrin matrix): 39.5%
- healing response ([4]; 33 μg/mL fibrin gel, topical, all three patients): enhanced healing response
- time to complete healing of wound ([4]; 33 μg/mL fibrin gel, topical, one patient, wound about 2 cm^2): ≤ 4 weeks
- time to complete healing of wound ([4]; 33 μg/mL fibrin gel, topical, third patient, deep wound down to the periost (1 cm^2)): 15 weeks
- decrease in wound bed depth as well as surface area ([4]; 33 μg/mL fibrin gel, topical, two large wounds on one patient (up to 17 cm^2), after 8 weeks): 30-50%
- healing versus standard treatment alone ([4]; fibrin gel treatment, doctors' assessment): strong enhancement of healing

Substance: VEGF
- effect on neurite extension ([5]; 1.0 μg/ml bound VEGF): did not increase neurite extension

Substance: bFGF: basic fibroblast growth factor, heparin-binding growth factor
- effect on neurite extension ([5]; 1 μg/ml and 5 μg/ml of bound bFGF (peptide + heparin in fibrin), dose dependent, 48 hr): increased
- effect on neurite outgrowth ([5]; bFGF added without peptide and heparin, gels washed, 48 hr): does not enhance neurite outgrowth

Substance: dLNQEQVSPK(βA)FAKLAARLYRKA
- incorporation of peptide into fibrin [6]: 8.7±0.2 moles of peptide per mole of fibrinogen
